According to patent publication US20240374546A1, “USES AND METHODS FOR PROMOTING INCREASED MITOCHONDRIAL MASS AND FUNCTION” (Brightseed, Inc., priority 2022, published 2024):

Tests used:
[1] = test system: IL-6; assay: ELISA for IL-6 secreted into medium of primary human hepatocytes; type: cell-based; conditions: NCT 5, 15, 40 μM
Description: (§1) Experiments with primary human hepatocytes were performed by CN-Bio (Cambridge, UK). Briefly, primary human hepatocytes (PHHs), human Kupffer cells (HKs) and human stellate cells (HSCs) were seeded onto CN-Bio's PhysioMimix LC12 MPS culture plates at 6×10^5 cells for PHHs and 6×10^4 cells for HKs and HSCs in 1.6 ml of CN-Bio's HEP-lean media with 5% FCS. Throughout the experiment the cells were maintained at a flow rate of 1 μl/s. After 24 hours (Day 1) of seeding, the media was changed to HEP-lean media and the cells were incubated until day 4 to allow the cells to form microtissues. At day 4 post seeding, media was changed to HEP-fat media and treated with DMSO or NCT (5, 15, 40 μM). Media was replaced on days 6 and 8. Cells were harvested on day 10 for RNA extraction and culture media was collected for ELISA analysis.

[2] = Oral gavage delivery of NCT to DIO mice; type: in vivo, mouse
Description: (§2) 12-week-old C57BL/6J DIO male mice were purchased from Jackson laboratory (cat #380050) and were fed with high fat diet (Research Diets, cat #D12492 60 kcal % fat). […] 14 week old mice were injected subcutaneously using sterile insulin syringes filled with DMSO or NCT (200 mg/kg of mouse body weight) bid for 2 weeks. For oral gavage, 14-week-old C57BL/6J DIO male mice were fed by oral gavage using a feeding needle attached to a sterile 1 ml syringe filled with 200 μL of methyl cellulose (MC, vehicle control) or 200 μL of NCT (200 mg/kg) dissolved in methyl cellulose twice a day for 2 weeks. […] For analysis all mice were sacrificed after 2 weeks of treatment.

[3] = biological target: T1, HNF4α (Mus musculus, UniProt P49698); assay: Immunofluorescence of hepatic HNF4α in HFD mice; type: in vivo; conditions: oral NCT in HFD chow, 10 weeks
T1 construct: from tissue; host or cells: liver of C57BL/6J mice
Description: Frozen liver sections were permeabilized using 0.3% Triton-X and incubated in antigen retrieval solution (Antigen retrieval citrate, Biogenex) at sub-boiling temperature for 10 min. Subsequently, sections were incubated with blocking buffer containing 5% normal donkey serum (Jackson Immuno Research) followed by incubation overnight at 4° C. with mouse anti-HNF4α monoclonal antibody (1:800, Cat #PP-H1415-00, R&D Systems), rabbit polyclonal anti-VDAC antibody (1:400, cat #PA1-954A, Invitrogen) and cleaved caspase3 antibody (1:500, cat #9664, Cell Signaling). Sections were washed and incubated for 1 hour at room temperature with anti-mouse secondary antibody coupled with Alexa fluor 488 (1:400, Invitrogen) and antirabbit secondary antibody coupled with rhodamine red. Nuclei were visualized by counterstaining with DAPI (40,6-diamidino-2-phenylindole, Sigma Aldrich). Slides were mounted using fluorescence mounting medium and images were obtained at 40× magnification using an Olympus IX71 fluorescence microscope. Fluorescence intensity of HNF4α-stained nuclei and VDAC stained mitochondria was calculated using MetaMorph TL software (version 7.6.5.0, Olympus). Fold change was calculated by normalizing to values from mice fed NC.

[4] = test system: Sirtuin3 mRNA; assay: qPCR primary human hepatocytes, Sirtuin3 mRNA; type: cell-based; conditions: NCT 5, 15, 40 μM
Description: as §1
(§3) Total RNA was isolated from liver tissues and primary human hepatocytes using Trizol (Invitrogen). cDNA was amplified using 3 μg of total RNA using qScript cDNA SuperMix (Quanta BioSciences, Beverly, MA, USA). Quantitative real time PCR (RT-PCR) analysis was performed using SYBR® Select Master Mix (Applied Biosystems) and an ABI 7900HT thermal cycler (Applied Biosystems, Thermo Fisher Scientific). Ct values were normalized to 18s rRNA and are expressed as fold change over samples from mice fed NC or cultured human hepatocytes without NCT.

[5] = test system: SDHA mRNA; assay: qPCR primary human hepatocytes, SDHA mRNA; type: cell-based; conditions: NCT 5, 15, 40 μM
Description: as §1, §3

[6] = test system: SDHA mRNA; assay: qPCR mouse liver, SDHA mRNA; type: in vivo; conditions: HFD+NCT vs HFD
Description: as §3

[7] = test system: cytochrome C mRNA; assay: qPCR primary human hepatocytes, cytochrome C mRNA; type: cell-based; conditions: NCT 5, 15, 40 μM
Description: as §1, §3

[8] = test system: Sirt3 mRNA; assay: qPCR mouse liver, Sirtuin3 mRNA; type: in vivo; conditions: HFD+NCT vs HFD
Description: as §3

[9] = test system: PPARγ mRNA; assay: qPCR mouse liver, PPARγ mRNA; type: in vivo; conditions: HFD+NCT vs HFD; to the level of normal chow
Description: as §3

[10] = Subcutaneous delivery of NCT to DIO mice; type: in vivo, mouse; conditions: 2 weeks
Description: as §2

[11] = Oil red O staining of liver sections; type: in vivo, mouse; conditions: HFD+NCT vs HFD, 10 weeks
Description: Oil red O staining was performed as described previously (34). Slides containing frozen liver tissue sections from mice were air dried for 10-20 min followed by rehydration in distilled water. Sections were immersed in absolute propylene glycol (Cat #151957, MP Biomedicals, LLC, USA) for 2 min followed by 0.5% in Oil red O solution (Cat #K043, Poly Scientific R&D, USA) for 2 hours. Slides were then differentiated in 85% propylene glycol solution, washed with dH2O for 2 hours, and mounted using glycerin jelly mounting medium. All slides were scanned at a magnification of 20× using the Aperio Scanscope FL system (Aperio Technologies Inc., Vista, CA, USA). The liver area stained with oil red O was measured using image J software as described, with some modifications as follow, Oil red O-stained liver images were opened in Image J software. Using the Analyze>Set Scale command, the scale bar of the images was set to 200 um. RGB images were then converted into gray scale images using the Image>Type>RGB Stack command and were split into red, blue and green channels. Using the Image >Adjust>Threshold command, the threshold was manually set to highlight the Oil red O stained lipid droplets in the green channel. […] Fold change was calculated by normalizing the values to images from mice fed normal chow.

[12] = test system: PPARGC1A mRNA; assay: qPCR mouse liver, PPARGC1A mRNA; type: in vivo; conditions: ten weeks of oral NCT
Description: as §3

[13] = previous two-week IP administration, obese mice; cited from earlier work

T1 sequence (P49698 whole entry): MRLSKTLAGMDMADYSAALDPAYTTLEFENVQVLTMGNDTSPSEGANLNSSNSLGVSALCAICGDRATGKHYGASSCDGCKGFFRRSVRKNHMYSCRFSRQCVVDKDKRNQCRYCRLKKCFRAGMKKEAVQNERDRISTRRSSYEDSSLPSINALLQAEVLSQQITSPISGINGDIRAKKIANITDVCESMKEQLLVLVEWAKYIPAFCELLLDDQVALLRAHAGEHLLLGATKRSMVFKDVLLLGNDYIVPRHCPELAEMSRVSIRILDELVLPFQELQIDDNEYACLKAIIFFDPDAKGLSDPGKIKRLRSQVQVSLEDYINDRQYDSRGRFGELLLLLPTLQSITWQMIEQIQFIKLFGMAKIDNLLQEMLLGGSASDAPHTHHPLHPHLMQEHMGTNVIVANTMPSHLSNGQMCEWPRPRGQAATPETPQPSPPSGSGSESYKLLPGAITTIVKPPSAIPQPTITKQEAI

With `O=C(/C=C/c1ccc(O)c(O)c1)NCCc1ccc(O)cc1` [NCT, N-transcaffeoyltyramine] the “body weight less than mice fed HFD” value (HFD+NCT (4000 ppm NCT in chow, approx. 400 mg/kg/d) vs HFD, end of experiment at 10 weeks) was ~10 gm, the “week at which lower body weight became evident” value (HFD+NCT vs HFD) was 5 week and the “difference in body weight” value (HFD+NCT vs HFD, 10 weeks) was 35-40%. The liver redness (HFD+NCT vs HFD, 10 weeks) was “redder livers”, the “obesity (appearance)” value (HFD+NCT vs HFD, 10 weeks) was “markedly less obese” and the “epididymal fat pad weight” value (HFD+NCT vs HFD, end of study, normalized to body weight) was “no change”. For the same molecule, the liver weight (HFD+NCT vs HFD, normalized to body weight) was “lower liver weight”, the liver size (HFD+NCT vs HFD, photographs) was “reduction of liver size” and the “physical activity or other behaviors” value (mouse, in vivo) was “no discernible difference”. The “IL-6 protein secreted by cultured human hepatocytes” value [1] was “reduced”, the “liver color after oral gavage NCT” value ([2]; 200 mg/kg bid, 2 weeks, vs methyl cellulose) was “No difference in liver color” and the “outcome of oral gavage delivery” value ([2]; 200 mg/kg in methyl cellulose, 2 doses per day, 2 weeks) was “compound precipitation”. For the same molecule, the “NCT compound level in serum and stool” value ([2]; following oral gavage 200 mg/kg bid) was “present in stool but not serum”, the “hepatic HNF4α expression (HFD-induced decrease)” value [3] was “reversed” and the “Sirtuin3 mRNA in primary human hepatocytes” value [4] was “significant effect”. For the same molecule, the “SDHA mRNA in primary human hepatocytes” value [5] was “increased”, the “SDHA mRNA in mouse liver” value [6] was “increased” and the “cytochrome C mRNA in primary human hepatocytes” value [7] was “but not cytochrome C”. For the same molecule, the “Sirt3 mRNA in mouse liver (effect of HFD)” value [8] was “almost completely reversed”, the “PPARγ expression in mouse liver” value [9] was “dramatically reduced” and the “liver color after subcutaneous NCT” value ([10]; 200 mg/kg bid, vs DMSO) was “No difference in liver color”. For the same molecule, the “outcome of subcutaneous delivery” value ([10]; 200 mg/kg, 2 doses per day, subcutaneous) was “compound precipitation”, the “Oil Red O staining of liver” value [11] was “decreased Oil Red O staining” and the “PPARGC1A mRNA in mouse liver” value [12] was “increased”. For the same molecule, the body weight [13] was “no effect on body weight” and the hepatic steatosis [13] was “decreased hepatic steatosis”.
